The record followed here is US20250281393A1, “BODY CAVITY GEL” (CS MEDICA A/S, priority 2021, published 2025).

SMILES strings stand for the structures. Like-named read-outs stand apart in the source and are kept apart here.

This test has as its system pathogens, such as virus, e.g. cold and/or flu. To be noted: in vivo.

Take `C=C(C)[C@@H]1CCC(C)=C[C@H]1c1c(O)cc(CCCCC)cc1O` [type A CBD, Cannabidiol]: the “Activity (potency) in protection against pathogens, compared with type B CBD” value is listed as “significantly more active”. Moreover, the “Activity (potency) in protection against pathogens, compared with type B CBD” value (listed as crystal structure A) is on record as “significantly more potent”.
